This is an account of results in patent US10206394B2, “Herbicidal compounds” (Syngenta Participations AG, priority 2014, dated 2019).

SMILES strings stand for the structures. Read-outs that look alike come from different tables or passages of the source.

Common to all, as to experiment: Glasshouse assay for herbicidal activity (pre- and post-emergence), percentage phytotoxicity
Common to all, as to type: in vivo

In assay [1] the test system is Lolium perenne (LOLPE). Conditions: Lolium perenne. The method, then:
(§1) Test—Glasshouse Assay for Herbicidal Activity
(§2) Seeds of a variety of monocotyledonous and dicotyledonous test plants are sown in standard soil in pots. The plants are cultivated for one day (for pre-emergence (PRE)) or for about 12 days (for post-emergence (POST)) under controlled conditions in a glasshouse (warm climate species at 24/18° C., cool climate species at 20/16° C., both at day/night; 16 hours light; 65% humidity).
(§3) The test plants are then grown on, in a glasshouse (greenhouse) under controlled conditions (warm climate species at 24/18° C., cool climate species at 20/16° C., both at day/night; 16 hours light; 65% humidity) and are watered twice daily. 15 days after application of the test herbicide (15 DAA) (for post-emergence), and 20 days after application of the test herbicide (20 DAA) (for pre-emergence), the test plants are evaluated visually, and an assessed percentage phytotoxicity score is given for each herbicidal application on each plant species (with 100%=total damage to plant; 0%=no damage to plant).
(§4) The plant species tested are as follows: Alopecurus myosuroides (ALOMY), Avena fatua (AVEFA), Lolium perenne (LOLPE), Echinochloa crus-galli (ECHCG).

The subject of assay [2] is Echinochloa crus-galli (ECHCG). Particulars: Echinochloa crus-galli. The method, then:
as §1, §2, §3, §4

The subject of assay [3] is Alopecurus myosuroides (ALOMY). Conditions: Alopecurus myosuroides. The method, then: as §1, §2, §3, §4
The subject of assay [4] is Avena fatua (AVEFA). Conditions: Avena fatua. The method, then: as §1, §2, §3, §4
[5] abbreviates: post-emergence, 360 h, POST-emergence, rate 250 g/ha, visual score 15 DAA (100%=total damage, 0%=no damage), read-out: Post-emergence herbicidal activity (percentage phytotoxicity) LOLPE POST.
[6] abbreviates: pre-emergence, 480 h, PRE-emergence, rate 250 g/ha, visual score 20 DAA (100%=total damage, 0%=no damage), read-out: Pre-emergence herbicidal activity (percentage phytotoxicity) LOLPE PRE.
[7] abbreviates: post-emergence, 360 h, POST-emergence, rate 250 g/ha, visual score 15 DAA (100%=total damage, 0%=no damage), read-out: Post-emergence herbicidal activity (percentage phytotoxicity) ECHCG POST.
The mark [8] stands for this setting: pre-emergence, 480 h, PRE-emergence, rate 250 g/ha, visual score 20 DAA (100%=total damage, 0%=no damage), read-out: Pre-emergence herbicidal activity (percentage phytotoxicity) ECHCG PRE.
[9] abbreviates: post-emergence, 360 h, POST-emergence, rate 250 g/ha, visual score 15 DAA (100%=total damage, 0%=no damage), read-out: Post-emergence herbicidal activity (percentage phytotoxicity) ALOMY POST.
Where [10] appears, read: pre-emergence, 480 h, PRE-emergence, rate 250 g/ha, visual score 20 DAA (100%=total damage, 0%=no damage), read-out: Pre-emergence herbicidal activity (percentage phytotoxicity) ALOMY PRE.
Setting [11] is: post-emergence, 360 h, POST-emergence, rate 250 g/ha, visual score 15 DAA (100%=total damage, 0%=no damage), read-out: Post-emergence herbicidal activity (percentage phytotoxicity) AVEFA POST.
[12] abbreviates: pre-emergence, 480 h, PRE-emergence, rate 250 g/ha, visual score 20 DAA (100%=total damage, 0%=no damage), read-out: Pre-emergence herbicidal activity (percentage phytotoxicity) AVEFA PRE.
Where [13] appears, read: post-emergence, 360 h, Rate 250 g/ha, post-emergence, visual assessment 15 DAA, 100%=total damage, 0%=no damage, read-out: Post-emergence herbicidal activity (percentage phytotoxicity) LOLPE POST.
The mark [14] stands for this setting: pre-emergence, 480 h, Rate 250 g/ha, pre-emergence, visual assessment 20 DAA, 100%=total damage, 0%=no damage, read-out: Pre-emergence herbicidal activity (percentage phytotoxicity) LOLPE PRE.
Setting [15] is: post-emergence, 360 h, Rate 250 g/ha, post-emergence, visual assessment 15 DAA, 100%=total damage, 0%=no damage, read-out: Post-emergence herbicidal activity (percentage phytotoxicity) ECHCG POST.
[16] abbreviates: pre-emergence, 480 h, Rate 250 g/ha, pre-emergence, visual assessment 20 DAA, 100%=total damage, 0%=no damage, read-out: Pre-emergence herbicidal activity (percentage phytotoxicity) ECHCG PRE.
Where [17] appears, read: post-emergence, 360 h, Rate 250 g/ha, post-emergence, visual assessment 15 DAA, 100%=total damage, 0%=no damage, read-out: Post-emergence herbicidal activity (percentage phytotoxicity) ALOMY POST.
[18] abbreviates: pre-emergence, 480 h, Rate 250 g/ha, pre-emergence, visual assessment 20 DAA, 100%=total damage, 0%=no damage, read-out: Pre-emergence herbicidal activity (percentage phytotoxicity) ALOMY PRE.
The mark [19] stands for this setting: post-emergence, 360 h, Rate 250 g/ha, post-emergence, visual assessment 15 DAA, 100%=total damage, 0%=no damage, read-out: Post-emergence herbicidal activity (percentage phytotoxicity) AVEFA POST.
Where [20] appears, read: pre-emergence, 480 h, Rate 250 g/ha, pre-emergence, visual assessment 20 DAA, 100%=total damage, 0%=no damage, read-out: Pre-emergence herbicidal activity (percentage phytotoxicity) AVEFA PRE.
[21] abbreviates: post-emergence, 360 h, 250 g/ha, post-emergence, 15 DAA, visual assessment (100%=total damage, 0%=no damage), read-out: Post-emergence herbicidal activity (percentage phytotoxicity) LOLPE POST.
The mark [22] stands for this setting: pre-emergence, 480 h, 250 g/ha, pre-emergence, 20 DAA, visual assessment (100%=total damage, 0%=no damage), read-out: Pre-emergence herbicidal activity (percentage phytotoxicity) LOLPE PRE.
Setting [23] is: post-emergence, 360 h, 250 g/ha, post-emergence, 15 DAA, visual assessment (100%=total damage, 0%=no damage), read-out: Post-emergence herbicidal activity (percentage phytotoxicity) ECHCG POST.
The mark [24] stands for this setting: pre-emergence, 480 h, 250 g/ha, pre-emergence, 20 DAA, visual assessment (100%=total damage, 0%=no damage), read-out: Pre-emergence herbicidal activity (percentage phytotoxicity) ECHCG PRE.
Setting [25] is: post-emergence, 360 h, 250 g/ha, post-emergence, 15 DAA, visual assessment (100%=total damage, 0%=no damage), read-out: Post-emergence herbicidal activity (percentage phytotoxicity) ALOMY POST.
[26] abbreviates: pre-emergence, 480 h, 250 g/ha, pre-emergence, 20 DAA, visual assessment (100%=total damage, 0%=no damage), read-out: Pre-emergence herbicidal activity (percentage phytotoxicity) ALOMY PRE.
[27] abbreviates: post-emergence, 360 h, 250 g/ha, post-emergence, 15 DAA, visual assessment (100%=total damage, 0%=no damage), read-out: Post-emergence herbicidal activity (percentage phytotoxicity) AVEFA POST.
Setting [28] is: pre-emergence, 480 h, 250 g/ha, pre-emergence, 20 DAA, visual assessment (100%=total damage, 0%=no damage), read-out: Pre-emergence herbicidal activity (percentage phytotoxicity) AVEFA PRE.

Turning to `C/C=C/c1cc(C)c(C2C(=O)CC(CC(=O)NC(C)(C)C)C2=O)c(C)c1` (stereo not shown) [Compound B173], the pest or weed control at 250 g/ha in assay [1] (setting [5]) was found to be 80%; in assay [1] (setting [6]) it was 90%; in assay [2] (setting [7]), 90%; in assay [2] (setting [8]) it was 90%; in assay [3] (setting [9]), 90%; in assay [3] (setting [10]), 90%. The values for the pest or weed control at 250 g/ha in assay [4] (setting [11]) and in assay [4] (setting [12]) were 80% and 60%, respectively.
Take `C#CC(C)(C)NC(=O)CC1CC(=O)C(c2c(C)cc(-c3ccc(Br)cn3)cc2C)C1=O` (stereo not shown) [Compound B297]: the pest or weed control at 250 g/ha in assay [1] (setting [5]) worked out at 100%; in assay [1] (setting [6]), 90%; in assay [2] (setting [7]), 100%; in assay [2] (setting [8]), 100%; in assay [3] (setting [9]) it was 100%; in assay [3] (setting [10]), 90%. Moreover, the figures for the pest or weed control at 250 g/ha in assay [4] (setting [11]) and in assay [4] (setting [12]) were 100% and 90%, respectively.
In the case of `C=CCNC(=O)CC1CC(=O)C(c2c(C)cc(-c3ccc(Cl)cn3)cc2C)C1=O` (stereo not shown) [Compound B370], the pest or weed control at 250 g/ha in assay [1] (setting [13]) amounted to 100%; in assay [1] (setting [14]) it was 100%; in assay [2] (setting [15]) it was 100%; in assay [2] (setting [16]), 100%; in assay [3] (setting [17]), 90%; in assay [3] (setting [18]), 100%. Besides, the pest or weed control at 250 g/ha in assay [4] (setting [19]) and in assay [4] (setting [20]) was 100% each time.
On to `Cc1cc(-n2cc(Cl)cn2)cc(C)c1C1C(=O)CC(CC(=O)NCC2CC2)C1=O` (stereo not shown) [Compound B227], for which the pest or weed control at 250 g/ha in assay [1] (setting [5]) was 90%; in assay [1] (setting [6]) it was 80%; in assay [2] (setting [7]), 100%; in assay [2] (setting [8]), 80%; in assay [3] (setting [9]), 100%; in assay [3] (setting [10]), 80%. Moreover, the values for the pest or weed control at 250 g/ha in assay [4] (setting [11]) and in assay [4] (setting [12]) were 100% and 80%, respectively.
With `COCCCNC(=O)CC1CC(=O)C(c2c(C)cc(-c3ncc(Cl)cc3F)cc2C)C1=O` (stereo not shown) [Compound B128], the pest or weed control at 250 g/ha in assay [1] (setting [21]), in assay [1] (setting [22]), in assay [2] (setting [23]), in assay [2] (setting [24]), in assay [3] (setting [25]) and in assay [3] (setting [26]) was 100% throughout. Also, the pest or weed control at 250 g/ha in assay [4] (setting [27]) and in assay [4] (setting [28]) was 100% in each case.
Turning to `Cc1cc(C)c(C2C(=O)CC(CC(=O)NCC3CC3(F)F)C2=O)c(C)c1` (stereo not shown) [Compound B158], the pest or weed control at 250 g/ha in assay [1] (setting [21]) was 90%; in assay [1] (setting [22]), 100%; in assay [2] (setting [23]), 80%; in assay [2] (setting [24]), 100%; in assay [3] (setting [25]) it was 90%; in assay [3] (setting [26]) it was 90%. The pest or weed control at 250 g/ha in assay [4] (setting [27]) is 80%; in assay [4] (setting [28]) it was 90%.
For the compound `Cc1cc(-c2ccc(F)cn2)cc(C)c1C1C(=O)CC(CC(=O)NCc2cccs2)C1=O` (stereo not shown) [Compound B397], the pest or weed control at 250 g/ha in assay [1] (setting [13]) was found to be 90%; in assay [1] (setting [14]), 70%; in assay [2] (setting [15]), 100%; in assay [2] (setting [16]), 100%; in assay [3] (setting [17]), 90%; in assay [3] (setting [18]), 70%. Further, the pest or weed control at 250 g/ha in assay [4] (setting [19]) amounted to 90%; in assay [4] (setting [20]), 80%.
As for `Cc1cc(-c2ccc(C#N)cn2)cc(C)c1C1C(=O)CC(CC(=O)N2CCOCC2)C1=O` (stereo not shown) [Compound B321], the pest or weed control at 250 g/ha was found to be 90% in assay [1] (setting [5]); 90% in assay [1] (setting [6]); 100% in assay [2] (setting [7]); 100% in assay [2] (setting [8]); 90% in assay [3] (setting [9]); 70% in assay [3] (setting [10]). In addition, the pest or weed control at 250 g/ha in assay [4] (setting [11]) was found to be 100%; in assay [4] (setting [12]) it was 80%.
